Where “and” joins values, the source holds several entries; their conditions need not be identical. Identical values can stand only once. Toxic doses and inconclusive results are not listed. No stated cut-off is given here; in the data, active means T/C of 150% or more; inactive means T/C below 125%.
Test system: L1210 leukemia ip in BDF1 mice, survival T/C
Assay: NCI In Vivo Anticancer Drug Screen. Data for tumor model L1210 Leukemia (intraperitoneal) in B6D2F1 (BDF1) mice
Conditions: endpoint: mean survival time, higher = longer survival
Outline: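 Ratio derived from survival: compound-dosed mice over vehicle-dosed mice, all bearing a transplantable tumor.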

[1] = dose: 25.0 mg/kg/injection, schedule: Q04DX003 (ip), vehicle: saline
[2] = dose: 100.0 mg/kg/injection, schedule: Q04DX003 (ip), vehicle: Klucel (hydroxypropylcellulose) (HPC)
[3] = dose: 200.0 mg/kg/injection, schedule: Q04DX003 (ip), vehicle: Klucel (hydroxypropylcellulose) (HPC)
[4] = dose: 400.0 mg/kg/injection, schedule: Q04DX003 (ip), vehicle: Klucel (hydroxypropylcellulose) (HPC)
[5] = dose: 100.0 mg/kg/injection, schedule: Q01DX009 (ip), vehicle: saline with Tween-80
[6] = dose: 200.0 mg/kg/injection, schedule: Q01DX009 (ip), vehicle: saline with Tween-80
[7] = dose: 400.0 mg/kg/injection, schedule: Q01DX009 (ip), vehicle: saline with Tween-80
[8] = dose: 100.0 mg/kg/injection, schedule: Q01DX001 (ip), vehicle: saline
[9] = dose: 200.0 mg/kg/injection, schedule: Q01DX001 (ip), vehicle: saline
[10] = dose: 400.0 mg/kg/injection, schedule: Q01DX001 (ip), vehicle: saline
[11] = dose: 100.0 mg/kg/injection, schedule: Q04DX002 (ip), vehicle: Klucel (hydroxypropylcellulose) (HPC)
[12] = dose: 200.0 mg/kg/injection, schedule: Q04DX002 (ip), vehicle: Klucel (hydroxypropylcellulose) (HPC)
[13] = dose: 25.0 mg/kg/injection, schedule: Q01DX009 (ip), vehicle: saline
[14] = dose: 25.0 mg/kg/injection, schedule: Q01DX009 (ip), vehicle: Klucel (hydroxypropylcellulose) (HPC)
[15] = dose: 100.0 mg/kg/injection, schedule: Q04DX003 (ip), vehicle: saline
[16] = dose: 200.0 mg/kg/injection, schedule: Q04DX003 (ip), vehicle: saline
[17] = dose: 400.0 mg/kg/injection, schedule: Q04DX003 (ip), vehicle: saline

Measured: T/C

CC1(C)N=C(N)N=C(N)N1c1cccc(CCCCC(=O)CCl)c1
inactive: dose: 12.5 mg/kg/injection, schedule: Q04DX003 (ip), vehicle: saline 109 % of control | [1] 102 % of control | dose: 50.0 mg/kg/injection, schedule: Q04DX003 (ip), vehicle: saline 110 % of control

O=C(O)/C=C/C(=O)NCCNC(=O)/C=C/C(=O)O
inactive: [2] 96 % of control | [3] 93 % of control | [4] 96 % of control

C(=C1c2ccccc2-c2ccccc21)c1ccccc1
inactive: [5] 100 % of control | dose: 100.0 mg/kg/injection, schedule: Q04DX003 (ip), vehicle: saline with Tween-80 100 % of control | [6] 95 % of control | dose: 200.0 mg/kg/injection, schedule: Q04DX003 (ip), vehicle: saline with Tween-80 100 % of control | [7] 91 % of control | dose: 400.0 mg/kg/injection, schedule: Q04DX003 (ip), vehicle: saline with Tween-80 92 % of control

O=c1ccc2ccccc2[nH]1
inactive: dose: 100.0 mg/kg/injection, schedule: Q01DX001 (ip), vehicle: Klucel (hydroxypropylcellulose) (HPC) 108 % of control | dose: 100.0 mg/kg/injection, schedule: Q01DX001 (ip), vehicle: other 105 % of control | dose: 200.0 mg/kg/injection, schedule: Q01DX001 (ip), vehicle: Klucel (hydroxypropylcellulose) (HPC) 111 % of control | dose: 200.0 mg/kg/injection, schedule: Q01DX001 (ip), vehicle: other 92 % of control | dose: 400.0 mg/kg/injection, schedule: Q01DX001 (ip), vehicle: Klucel (hydroxypropylcellulose) (HPC) 113 % of control

O=[N+]([O-])c1ccc(C=Nc2ccc(Cc3ccncc3)cc2)cc1
inactive: dose: 100.0 mg/kg/injection, schedule: Q01DX009 (ip), vehicle: carboxymethylcellulose (CMC) 93 % of control and 100 % of control | dose: 100.0 mg/kg/injection, schedule: Q04DX002 (ip), vehicle: carboxymethylcellulose (CMC) 104 % of control | dose: 100.0 mg/kg/injection, schedule: Q04DX003 (ip), vehicle: carboxymethylcellulose (CMC) 101 % of control | dose: 200.0 mg/kg/injection, schedule: Q01DX009 (ip), vehicle: carboxymethylcellulose (CMC) 97 % of control and 98 % of control | dose: 200.0 mg/kg/injection, schedule: Q04DX002 (ip), vehicle: carboxymethylcellulose (CMC) 98 % of control | dose: 200.0 mg/kg/injection, schedule: Q04DX003 (ip), vehicle: carboxymethylcellulose (CMC) 94 % of control | dose: 400.0 mg/kg/injection, schedule: Q01DX009 (ip), vehicle: carboxymethylcellulose (CMC) 95 % of control and 91 % of control | dose: 400.0 mg/kg/injection, schedule: Q04DX002 (ip), vehicle: carboxymethylcellulose (CMC) 93 % of control | dose: 400.0 mg/kg/injection, schedule: Q04DX003 (ip), vehicle: carboxymethylcellulose (CMC) 100 % of control

NCCCCc1nc(N)nc(N)c1-c1ccc(Cl)cc1
inactive: dose: 25.0 mg/kg/injection, schedule: Q01DX001 (ip), vehicle: saline 104 % of control | dose: 50.0 mg/kg/injection, schedule: Q01DX001 (ip), vehicle: saline 96 % of control | [8] 102 % of control

CCOC(=O)C1=NN(c2ccccc2)C(=O)C1N=Nc1ccc(NS(=O)(=O)c2nccs2)cc1 (centres undefined)
inactive: [8] 102 % of control | [9] 105 % of control | [10] 96 % of control

NNC(=O)CNc1ccc(F)c(F)c1
inactive: [11] 104 % of control | [12] 108 % of control

CN(C)C(CCN1CCCCC1)CN1CCCCC1 (centres undefined)
inactive: [8] 100 % of control | [9] 96 % of control | [10] 90 % of control

O=C(NCc1ccncc1)Nc1ccccc1
inactive: [11] 103 % of control | [12] 103 % of control | dose: 400.0 mg/kg/injection, schedule: Q04DX002 (ip), vehicle: Klucel (hydroxypropylcellulose) (HPC) 106 % of control

Cc1cc(OC(=O)Nc2cccc(Cl)c2)ccc1Cl
inactive: [5] 91 % of control | [6] 93 % of control | [7] 95 % of control

CCCCCCOC(CN)C(Cl)(Cl)Cl (centres undefined)
inactive: dose: 12.5 mg/kg/injection, schedule: Q04DX003 (ip), vehicle: saline with Tween-80 107 % of control | dose: 25.0 mg/kg/injection, schedule: Q01DX009 (ip), vehicle: saline with Tween-80 116 % of control | dose: 25.0 mg/kg/injection, schedule: Q04DX003 (ip), vehicle: saline with Tween-80 109 % of control | dose: 50.0 mg/kg/injection, schedule: Q01DX009 (ip), vehicle: saline with Tween-80 97 % of control | dose: 50.0 mg/kg/injection, schedule: Q04DX003 (ip), vehicle: saline with Tween-80 102 % of control

c1ccc2c(CNC3CCCCC3)c[nH]c2c1
inactive: dose: 50.0 mg/kg/injection, schedule: Q01DX001 (ip), vehicle: carboxymethylcellulose (CMC) 90 % of control | [2] 90 % of control | [3] 97 % of control | [4] 98 % of control

CCn1cnc2c(SC)ncnc21
inactive: dose: 75.0 mg/kg/injection, schedule: Q01DX001 (ip), vehicle: acetone 101 % of control | dose: 150.0 mg/kg/injection, schedule: Q01DX001 (ip), vehicle: acetone 106 % of control | dose: 300.0 mg/kg/injection, schedule: Q01DX001 (ip), vehicle: acetone 108 % of control

CC1=NCCN1CCN=C(N)CCl
inactive: dose: 12.5 mg/kg/injection, schedule: Q04DX002 (ip), vehicle: saline 107 % of control | [13] 111 % of control | dose: 25.0 mg/kg/injection, schedule: Q04DX002 (ip), vehicle: saline 91 % of control | dose: 50.0 mg/kg/injection, schedule: Q01DX009 (ip), vehicle: saline 101 % of control | dose: 50.0 mg/kg/injection, schedule: Q04DX002 (ip), vehicle: saline 91 % of control

Cc1ccc([As](=O)(O)O)cc1F
inactive: dose: 1.56 mg/kg/injection, schedule: Q01DX009 (ip), vehicle: Klucel (hydroxypropylcellulose) (HPC) 94 % of control | dose: 3.13 mg/kg/injection, schedule: Q01DX009 (ip), vehicle: Klucel (hydroxypropylcellulose) (HPC) 94 % of control | dose: 6.25 mg/kg/injection, schedule: Q01DX009 (ip), vehicle: Klucel (hydroxypropylcellulose) (HPC) 88 % of control

CC[P+](CC)(CC)c1ccccc1
inactive: dose: 6.0 mg/kg/injection, schedule: Q04DX003 (ip), vehicle: saline 103 % of control | dose: 6.25 mg/kg/injection, schedule: Q01DX009 (ip), vehicle: saline 100 % of control | dose: 12.0 mg/kg/injection, schedule: Q04DX003 (ip), vehicle: saline 107 % of control | dose: 12.5 mg/kg/injection, schedule: Q01DX009 (ip), vehicle: saline 100 % of control | [14] 100 % of control | [13] 110 % of control | [1] 96 % of control and 92 % of control

COc1cccc2c1C(=O)c1c(O)c3c(c(O)c1C2=O)C[C@@](O)(C(=O)CO)C[C@@H]3OC1CC(NC(=S)Nc2ccc(F)cc2)C(O)C(C)O1 (some centres undefined)
inactive: [15] 111 % of control | [16] 106 % of control | [17] 104 % of control

NC(=O)C[n+]1cccc(C(=O)Nc2ccccc2)c1
inactive: [15] 97 % of control | [16] 101 % of control | [17] 87 % of control

C[P+](c1ccc(F)cc1)(c1ccc(F)cc1)c1ccc(F)cc1
inactive: [14] 98 % of control | dose: 50.0 mg/kg/injection, schedule: Q01DX009 (ip), vehicle: Klucel (hydroxypropylcellulose) (HPC) 96 % of control | [2] 89 % of control
